Where a name gives a salt, the structure may show the parent alone. Read-outs that look alike come from different tables or passages of the source.
Columns and labels:
[1] = tested on: NCI-H292 lung cancer cells; test: FDA drug screening, complete media vs cholesterol-free media without statin (TABLE 1); format: cell-based, human
[2] = tested on: NCI-H292 lung cancer cells; test: FDA drug screening, complete media vs cholesterol-free media with simvastatin (TABLE 2); format: cell-based, human
[3] = NCI-H292 cells, cholesterol-free media without statin
[4] = complete vs cholesterol-free media, greater than 0 enhanced anti-cancer activity, about 0 neutral, below 0 antagonists
[5] = NCI-H292 cells, cholesterol-free media with simvastatin 0.04 μM, cell growth value in FDA drug screen
[6] = NCI-H292 cells, complete media, cell growth value in FDA drug screen
[7] = complete media minus cholesterol-free media + simvastatin, >0 enhanced anti-cancer activity, about 0 neutral, <0 antagonist
[8] = Complete minus Cholesterol-free, >0 enhanced anti-cancer activity, about 0 neutral, <0 antagonist
[9] = NCI-H292 cells, FDA library drug in cholesterol-free media with simvastatin 0.04 μM
[10] = NCI-H292 cells, FDA library drug in complete media
[11] = complete media vs cholesterol-free media + simvastatin (0.04 μM), >0 enhanced anti-cancer activity, about 0 neutral, <0 antagonist
[12] = NCI-H292 cells, FDA drug library screen, cholesterol-free media with simvastatin 0.04 μM
[13] = NCI-H292 cells, FDA drug library screen, complete media
[14] = Complete minus Cholesterol-free, greater than 0 enhanced anti-cancer activity, about 0 neutral, below 0 antagonists
[15] = NCI-H292 cells in cholesterol-free media without statin
[16] = NCI-H292 cells in complete media
[17] = Complete minus Cholesterol-free, greater than 0 enhanced anti-cancer activity, about 0 neutral, below 0 antagonist
[18] = NCI-H292 cells, FDA drug library screen, cholesterol-free media without statin

Q: Which results are given for `O=C(O[C@@H]1C[C@@H]2C[C@H]3C[C@H](C1)N2CC3=O)c1c[nH]c2ccccc12` [Dolasetron]?
A: Cholesterol-free [1, 3]: 1.4; Complete ([1]; NCI-H292 cells, complete media): 0.9782; Difference [1, 4]: −0.42; Cholesterol-free media + simvastatin (0.04 μM) [2, 5]: 0.9714; Complete Media [2, 6]: 1.02; Difference [2, 7]: 0.05

Q: Which results are given for `COc1cc(NS(=O)(=O)c2ccc(N)cc2)nc(OC)n1` [Sulfadimethoxine (sodium)]?
A: Difference [1, 8]: −0.30; Cholesterol-free [1, 3]: 1.031; Complete ([1]; NCI-H292 cells, complete media): 0.7288; Cholesterol-free media + simvastatin (0.04 μM) [2, 9]: 1.876; Complete Media [2, 10]: 1.521; Difference [2, 11]: −0.35

Q: Which results are given for `CC(=O)OCC1=C(C(=O)O)N2C(=O)[C@@H](NC(=O)CSc3ccncc3)[C@H]2SC1` [Cephapirin (sodium)]?
A: Cholesterol-free [1]: 0.9897; Complete [1]: 1.131; Difference [1]: 0.14; Cholesterol-free media + simvastatin (0.04 μM) [2]: 2.472; Complete Media [2]: 1.209; Difference [2]: −1.26

Q: For `C[C@H]1C[C@@H]2[C@H]([C@@H](O)C[C@@]3(C)[C@H]2CC[C@]3(O)C(=O)CO)[C@@]2(C)C=CC(=O)C=C12` [Methylprednisolone], which Difference [1, 8] is on record?
A: −0.22

Q: And the Cholesterol-free [1, 3]?
A: 0.8356

Q: What about the Complete ([1]; NCI-H292 cells, complete media) of the same compound?
A: 0.6178

Q: What about the “Cholesterol-free media + simvastatin (0.04 μM)” value [2, 12] of the same compound?
A: 1.016

Q: What about the “Complete Media” value [2, 13] of the same compound?
A: 1.212

Q: And the Difference [2, 7]?
A: 0.20

Q: How did the Difference [1, 14] turn out when `CN[C@@H]1[C@H](O)[C@H](NC)[C@H]2O[C@@]3(O)C(=O)C[C@@H](C)O[C@H]3O[C@@H]2[C@H]1O.Cl.Cl.O.O.O.O.O` was run?
A: −0.93

Q: What about the Cholesterol-free [1, 15] of the same compound?
A: 1.889

Q: And the Complete [1, 16]?
A: 0.9594

Q: And the “Cholesterol-free media + simvastatin (0.04 μM)” value [2, 12]?
A: 0.773

Q: And the “Complete Media” value [2, 13]?
A: 0.9222

Q: What about the Difference [2, 7] of the same compound?
A: 0.15

Q: What does the source list for `CC[C@H]1OC(=O)[C@H](C)[C@@H](O[C@H]2C[C@@](C)(OC)[C@@H](O)[C@H](C)O2)[C@H](C)[C@@H](O[C@@H]2O[C@H](C)C[C@H](N(C)C)[C@H]2O)[C@](C)(O)C[C@@H](C)C(=O)[C@H](C)[C@@H](O)[C@]1(C)O` [Erythromycin]?
A: Difference [1, 14]: −0.99; Cholesterol-free [1, 15]: 1.913; Complete [1, 16]: 0.9269; Cholesterol-free media + simvastatin (0.04 μM) ([2]; NCI-H292 cells, drug in cholesterol-free media with simvastatin 0.04 μM): 1.202; Complete Media ([2]; NCI-H292 cells, drug in complete media): 0.9929; Difference [2, 11]: −0.21

Q: What does the source list for `C[C@@H]1C/C=C/C=C/C=C/C=C/[C@H](O[C@@H]2O[C@H](C)[C@@H](O)[C@H](N)[C@@H]2O)C[C@@H]2O[C@](O)(C[C@@H](O)C[C@H]3O[C@@H]3/C=C/C(=O)O1)C[C@H](O)[C@H]2C(=O)O` [Natamycin]?
A: Difference [1, 17]: −0.07; Cholesterol-free [1, 18]: 1.061; Complete [1, 13]: 0.9893; Cholesterol-free media + simvastatin (0.04 μM) [2, 12]: 1.218; Complete Media [2, 13]: 1.127; Difference [2, 11]: −0.09

Q: Which Difference [1, 8] does the source give for `Cc1cnc(Nc2ccc(OCCN3CCCC3)cc2)nc1Nc1cccc(S(=O)(=O)NC(C)(C)C)c1` [Fedratinib] here?
A: −0.27

Q: And the Cholesterol-free [1, 3]?
A: 0.5626

Q: What about the Complete ([1]; NCI-H292 cells, complete media) of the same compound?
A: 0.2926

Q: And the “Cholesterol-free media + simvastatin (0.04 μM)” value [2, 9]?
A: 0.6759

Q: And the “Complete Media” value [2, 10]?
A: 0.284

Q: And the Difference [2, 11]?
A: −0.39

Q: For `CC(C)c1c(C(=O)Nc2ccccc2)c(-c2ccccc2)c(-c2ccc(F)cc2)n1CC[C@@H](O)C[C@@H](O)CC(=O)O` [Atorvastatin (hemicalcium salt)], which Difference [1, 8] is on record?
A: −0.21

Q: And the Cholesterol-free [1, 3]?
A: 0.7947

Q: What about the Complete ([1]; NCI-H292 cells, complete media) of the same compound?
A: 0.5817

Q: And the “Cholesterol-free media + simvastatin (0.04 μM)” value [2, 12]?
A: 0.4555

Q: What about the “Complete Media” value [2, 13] of the same compound?
A: 0.7295

Q: And the Difference [2, 7]?
A: 0.27

Q: With `CSCCC(N)C(=O)O` (racemic) [DL-Methionine] as the compound, how does the Difference [1, 8] read?
A: −0.06

Q: What about the Cholesterol-free ([1]; NCI-H292 cells, cholesterol-free media without statin, FDA drug library screen) of the same compound?
A: 1.381

Q: What about the Complete ([1]; NCI-H292 cells, complete media, FDA drug library screen) of the same compound?
A: 1.325

Q: And the “Cholesterol-free media + simvastatin (0.04 μM)” value [2, 5]?
A: 0.9866

Q: And the “Complete Media” value [2, 6]?
A: 1.007

Q: What about the Difference [2, 7] of the same compound?
A: 0.02

Q: Which results are given for `CCC[C@@H]1C[C@@H](C(=O)N[C@@H]([C@H]2O[C@H](SC)[C@H](O)[C@@H](O)[C@H]2O)[C@@H](C)O)N(C)C1` [Lincomycin (hydrochloride monohydrate)]?
A: Cholesterol-free [1, 3]: 1.114; Complete ([1]; NCI-H292 cells, complete media): 0.7781; Difference [1, 4]: −0.34; Cholesterol-free media + simvastatin (0.04 μM) [2, 5]: 0.819; Complete Media [2, 6]: 0.8378; Difference [2, 7]: 0.02

Q: Which Difference [1, 17] does the source give for `CC(=O)N[C@@H](CC(C)C)C(=O)O` [Acetylleucine] here?
A: −0.09

Q: What about the Cholesterol-free [1, 18] of the same compound?
A: 0.9104

Q: What about the Complete [1, 13] of the same compound?
A: 0.8206

Q: What about the “Cholesterol-free media + simvastatin (0.04 μM)” value ([2]; NCI-H292 cells, cholesterol-free media with simvastatin 0.04 μM, FDA drug library screen (TABLE 2)) of the same compound?
A: 0.8948

Q: What about the “Complete Media” value ([2]; NCI-H292 cells, complete media, FDA drug library screen (TABLE 2)) of the same compound?
A: 0.8714

Q: And the Difference ([2]; complete media minus cholesterol-free media + simvastatin (0.04 μM), >0 enhanced anti-cancer activity, about 0 neutral, <0 antagonist)?
A: −0.02

Q: With `O=C(CCCN1CCC(O)(c2ccc(Br)cc2)CC1)c1ccc(F)cc1` [Bromperidol] as the compound, how does the Difference [1, 17] read?
A: −0.13

Q: What about the Cholesterol-free [1, 18] of the same compound?
A: 1.177

Q: What about the Complete [1, 13] of the same compound?
A: 1.05

Q: What about the “Cholesterol-free media + simvastatin (0.04 μM)” value [2, 12] of the same compound?
A: 0.4758

Q: What about the “Complete Media” value [2, 13] of the same compound?
A: 1.318

Q: And the Difference [2, 7]?
A: 0.84

From patent publication US20250144067A1, “PERSONALIZED STARVATION THERAPY FOR CANCER” (Faeth Therapeutics, Inc., priority 2021, published 2025)
